In patent publication US20090137615A1, “INDAZOLYLAMINO QUINAZOLINE DERIVATIVES AS ANTITUMOUR AGENTS” (priority 2005, published 2009):

Experiments:
erbB2 tyrosine kinase = biological target: T1, erbB2 tyrosine kinase (Homo sapiens, UniProt P04626); assay: Protein tyrosine kinase phosphorylation assay, Test (a), erbB2; assay type: biochemical; details: recombinant intracellular fragment, ATP at Km; read-out: IC50 Test (a): Inhibition of erbB2 tyrosine kinase protein phosphorylation
T1 construct: Recombinant intracellular fragments of EGFR, erbB2 and erbB4; made in house; host or cells: baculovirus/Sf21 insect cells (cleared lysate used)
Procedure: (§1) This test measures the ability of a test compound to inhibit the phosphorylation of a tyrosine containing polypeptide substrate by EGFR, erbB2 and erbB4 tyrosine kinase enzyme.
(§2) Recombinant intracellular fragments of EGFR, erbB2 and erbB4 (accession numbers X00588, X03363 and L07868 respectively) were cloned and expressed in the baculovirus/Sf21 system. […]
(§3) Constitutive kinase activity of these recombinant proteins was determined by their ability to phosphorylate a synthetic peptide (made up of a random co-polymer of Glutamic Acid, Alanine and Tyrosine in the ratio of 6:3:1). […]
(§4) The immobilised phospho-peptide product of the reaction was detected by immunological methods. […] After further washing, HRP activity in each well of the plate was measured colorimetrically using 22′-Azino-di-[3-ethylbenzthiazoline sulfonate (6)]diammonium salt crystals (ABTS™ from Roche) as a substrate.
(§5) Quantification of colour development and thus enzyme activity was achieved by the measurement of absorbance at 405 nm on a Molecular Devices ThermoMax microplate reader. Kinase inhibition for a given compound was expressed as an IC50 value. […] The range of phosphorylation was calculated from the positive (vehicle plus ATP) and negative (vehicle minus ATP) control values.

EGFR tyrosine kinase = biological target: T2, EGFR tyrosine kinase (Homo sapiens, UniProt P00533); assay: Protein tyrosine kinase phosphorylation assay, Test (a), EGFR; assay type: biochemical; details: recombinant intracellular fragment, ATP at Km; read-out: IC50 Test (a): Inhibition of EGFR tyrosine kinase protein phosphorylation
T2 construct: Recombinant intracellular fragments of EGFR, erbB2 and erbB4; made in house; host or cells: baculovirus/Sf21 insect cells (cleared lysate used)
Procedure: as §1, §2, §3, §4, §5

erbB2 = biological target: T3, erbB2 (Homo sapiens, UniProt P04626); assay: Clone 24 phospho-erbB2 cell assay, Test (c); assay type: cell-based; details: MCF7 derived cell line (Clone 24) overexpressing erbB2, 4 hours; read-out: IC50 Test (c): Inhibition of erbB2 tyrosine kinase protein phosphorylation
T3 construct: a cell line that overexpresses full length wild type erbB2 protein; expressed in transfected cells; host or cells: MCF7 (breast carcinoma) derived 'Clone 24' cells
Procedure: This immunofluorescence end point assay measures the ability of a test compound to inhibit the phosphorylation of erbB2 in a MCF7 (breast carcinoma) derived cell line which was generated by transfecting MCF7 cells with the full length erbB2 gene using standard methods to give a cell line that overexpresses full length wild type erbB2 protein (hereinafter ‘Clone 24’ cells).
Clone 24 cells were cultured in Growth Medium (phenol red free Dulbecco's modified Eagle's medium (DMEM) containing 10% foetal bovine serum, 2 mM glutamine and 1.2 mg/ml G418) in a 7.5% CO2 air incubator at 37° C. […] Cell density was measured using a haemocytometer and viability was calculated using Trypan Blue solution before being further diluted in Growth Medium and seeded at a density of 1×10^4 cells per well (in 100 μl) into clear bottomed 96 well plates (Packard, No. 6005182). […]
Immunostaining was performed at room temperature. […] Plates were analysed within six hours of completing the immunostaining.
The Fluorescence signal is each well was measured using an Acumen Explorer Instrument (Acumen Bioscience Ltd.), a plate reader that can be used to rapidly quantitate features of images generated by laser-scanning. […]

T2 sequence (P00533 669-1210 limits assumed): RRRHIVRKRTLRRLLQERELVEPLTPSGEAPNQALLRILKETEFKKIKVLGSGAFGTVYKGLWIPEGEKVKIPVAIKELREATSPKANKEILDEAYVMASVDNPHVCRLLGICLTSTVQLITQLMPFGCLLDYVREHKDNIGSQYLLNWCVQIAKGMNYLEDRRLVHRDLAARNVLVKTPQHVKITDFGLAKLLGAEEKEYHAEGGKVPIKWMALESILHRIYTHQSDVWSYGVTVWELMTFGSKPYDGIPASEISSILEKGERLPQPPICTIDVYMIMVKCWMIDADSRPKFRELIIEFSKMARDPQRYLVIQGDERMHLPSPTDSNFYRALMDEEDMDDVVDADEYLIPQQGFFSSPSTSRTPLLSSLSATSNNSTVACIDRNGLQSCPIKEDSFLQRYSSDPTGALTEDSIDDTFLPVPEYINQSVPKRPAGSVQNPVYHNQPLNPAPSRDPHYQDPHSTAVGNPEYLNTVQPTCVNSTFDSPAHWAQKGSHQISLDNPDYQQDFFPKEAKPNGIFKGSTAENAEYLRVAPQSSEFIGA
T1 sequence (P04626 676-1255 limits assumed): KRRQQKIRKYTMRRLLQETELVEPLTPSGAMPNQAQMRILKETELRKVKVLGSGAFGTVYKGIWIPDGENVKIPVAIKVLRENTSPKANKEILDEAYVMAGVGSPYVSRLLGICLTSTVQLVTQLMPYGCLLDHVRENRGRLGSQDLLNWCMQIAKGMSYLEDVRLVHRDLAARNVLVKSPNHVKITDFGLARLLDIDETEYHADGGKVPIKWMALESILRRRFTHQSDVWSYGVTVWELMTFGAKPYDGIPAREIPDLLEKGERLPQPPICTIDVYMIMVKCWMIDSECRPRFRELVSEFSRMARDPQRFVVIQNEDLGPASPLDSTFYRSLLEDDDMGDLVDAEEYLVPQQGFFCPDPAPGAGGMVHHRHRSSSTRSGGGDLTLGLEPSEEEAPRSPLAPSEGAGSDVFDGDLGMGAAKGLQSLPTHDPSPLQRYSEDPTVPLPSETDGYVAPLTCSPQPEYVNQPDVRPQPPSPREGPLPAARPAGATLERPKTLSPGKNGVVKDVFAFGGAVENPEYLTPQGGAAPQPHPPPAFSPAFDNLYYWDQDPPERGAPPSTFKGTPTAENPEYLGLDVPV
T3 sequence (P04626 23-1255): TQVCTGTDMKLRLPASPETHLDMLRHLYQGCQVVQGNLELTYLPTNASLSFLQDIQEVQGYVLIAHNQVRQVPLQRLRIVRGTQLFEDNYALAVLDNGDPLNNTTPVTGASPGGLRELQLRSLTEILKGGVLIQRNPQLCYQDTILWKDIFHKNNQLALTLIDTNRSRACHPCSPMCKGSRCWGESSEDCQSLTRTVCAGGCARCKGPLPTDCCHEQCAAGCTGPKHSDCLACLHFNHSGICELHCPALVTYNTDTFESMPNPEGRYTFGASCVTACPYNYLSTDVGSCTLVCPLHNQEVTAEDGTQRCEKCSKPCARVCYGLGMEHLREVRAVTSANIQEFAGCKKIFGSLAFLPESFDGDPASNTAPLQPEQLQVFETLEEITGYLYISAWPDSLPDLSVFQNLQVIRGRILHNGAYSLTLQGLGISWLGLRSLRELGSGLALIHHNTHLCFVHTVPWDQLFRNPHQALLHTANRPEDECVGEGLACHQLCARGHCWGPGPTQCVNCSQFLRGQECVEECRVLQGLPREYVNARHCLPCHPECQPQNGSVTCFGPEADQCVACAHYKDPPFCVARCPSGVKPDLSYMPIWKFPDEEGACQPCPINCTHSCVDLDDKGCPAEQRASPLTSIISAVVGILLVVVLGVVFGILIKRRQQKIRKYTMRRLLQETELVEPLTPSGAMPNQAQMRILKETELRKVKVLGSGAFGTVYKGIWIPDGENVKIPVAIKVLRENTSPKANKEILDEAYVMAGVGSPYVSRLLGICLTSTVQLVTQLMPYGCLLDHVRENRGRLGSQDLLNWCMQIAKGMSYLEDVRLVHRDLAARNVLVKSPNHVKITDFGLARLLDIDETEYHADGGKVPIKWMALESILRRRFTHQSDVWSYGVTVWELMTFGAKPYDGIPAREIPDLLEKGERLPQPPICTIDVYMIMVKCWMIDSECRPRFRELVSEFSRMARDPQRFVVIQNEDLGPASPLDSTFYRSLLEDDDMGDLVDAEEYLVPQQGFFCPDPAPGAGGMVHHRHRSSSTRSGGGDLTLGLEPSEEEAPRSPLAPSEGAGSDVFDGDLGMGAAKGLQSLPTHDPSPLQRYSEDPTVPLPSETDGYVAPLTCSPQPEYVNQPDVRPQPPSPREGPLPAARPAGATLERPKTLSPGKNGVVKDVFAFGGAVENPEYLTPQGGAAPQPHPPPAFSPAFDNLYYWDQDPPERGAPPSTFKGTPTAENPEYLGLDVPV

| IC50 (erbB2 tyrosine kinase) | IC50 (EGFR tyrosine kinase) | IC50 (erbB2) | Compound |
| --- | --- | --- | --- |
| 5 nM | 61 nM | 44 nM | O=C(CO)N1CCCC[C@@H]1COc1cccc2ncnc(Nc3ccc4c(cnn4Cc4ccccn4)c3)c12 [Example 4, 2-Oxo-2-((2R)-2-{[(4-{[1-(pyridin-2-ylmethyl)-1H-indazol-5-yl]amino}quinazolin-5-yl)oxy]methyl}piperidin-1-yl)ethanol] |
| 6 nM | 310 nM | 380 nM | O=C(CO)N1CCC[C@@H]1COc1cccc2ncnc(Nc3ccc4c(cnn4Cc4ccccn4)c3)c12 [Example 1, 2-Oxo-2-((2R)-2-{[(4-{[1-(pyridin-2-ylmethyl)-1H-indazol-5-yl]amino}quinazolin-5-yl)oxy]methyl}pyrrolidin-1-yl)ethanol] |
